Source: the supplement of paper PMC10307832

How the values were obtained:
Assay in all cases: relative viability (nuclei count vs DMSO), 5 days (fraction); higher = more cells survive
Dinaciclib + Alpelisib = compound: CCc1cnn2c(NCc3ccc[n+]([O-])c3)cc(N3CCCC[C@H]3CCO)nc12 [Dinaciclib] + Cc1nc(NC(=O)N2CCC[C@H]2C(N)=O)sc1-c1ccnc(C(C)(C)C(F)(F)F)c1 [Alpelisib] (partner 2 µM)
How it was run: (§1)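 One day after seeding in 1536-well plates, lung cancer cell lines were dosed by pin tool. Dosing was either single-drug or a fixed anchor-drug dose plus five library-drug doses (not always all listed) in √10 steps. After 5 days, nuclei were stained in one fix-and-stain step and counted on 4× images, and relative viability is the nuclei count of treated wells over that of vehicle wells, given as the median of duplicate plates.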

Dinaciclib + Pemetrexed = compound: CCc1cnn2c(NCc3ccc[n+]([O-])c3)cc(N3CCCC[C@H]3CCO)nc12 [Dinaciclib] + Nc1nc2[nH]cc(CCc3ccc(C(=O)N[C@@H](CCC(=O)O)C(=O)O)cc3)c2c(=O)[nH]1 [Pemetrexed] (partner 0.2 µM)
How it was run: as §1

Dinaciclib + Decitabine = compound: CCc1cnn2c(NCc3ccc[n+]([O-])c3)cc(N3CCCC[C@H]3CCO)nc12 [Dinaciclib] + Nc1ncn([C@H]2C[C@H](O)[C@@H](CO)O2)c(=O)n1 [Decitabine] (partner 2 µM)
How it was run: as §1

Dinaciclib + Vorinostat = compound: CCc1cnn2c(NCc3ccc[n+]([O-])c3)cc(N3CCCC[C@H]3CCO)nc12 [Dinaciclib] + O=C(CCCCCCC(=O)Nc1ccccc1)NO [Vorinostat] (partner 1 µM)
How it was run: as §1

Dinaciclib + Olaparib = compound: CCc1cnn2c(NCc3ccc[n+]([O-])c3)cc(N3CCCC[C@H]3CCO)nc12 [Dinaciclib] + O=C(c1cc(Cc2n[nH]c(=O)c3ccccc23)ccc1F)N1CCN(C(=O)C2CC2)CC1 [Olaparib] (partner 8 µM)
How it was run: as §1

| Cell Line | relative viability (Dinaciclib + Alpelisib; first compound 0.009487 µM) | relative viability (Dinaciclib + Alpelisib; first compound 0.03 µM) | relative viability (Dinaciclib + Alpelisib; first compound 0.09487 µM) | relative viability (Dinaciclib + Alpelisib; first compound 0.3 µM) | relative viability (Dinaciclib + Pemetrexed; first compound 0.009487 µM) | relative viability (Dinaciclib + Pemetrexed; first compound 0.03 µM) | relative viability (Dinaciclib + Pemetrexed; first compound 0.09487 µM) | relative viability (Dinaciclib + Pemetrexed; first compound 0.3 µM) | relative viability (Dinaciclib + Decitabine; first compound 0.009487 µM) | relative viability (Dinaciclib + Decitabine; first compound 0.03 µM) | relative viability (Dinaciclib + Decitabine; first compound 0.09487 µM) | relative viability (Dinaciclib + Decitabine; first compound 0.3 µM) | relative viability (Dinaciclib + Vorinostat; first compound 0.009487 µM) | relative viability (Dinaciclib + Vorinostat; first compound 0.03 µM) | relative viability (Dinaciclib + Vorinostat; first compound 0.09487 µM) | relative viability (Dinaciclib + Vorinostat; first compound 0.3 µM) | relative viability (Dinaciclib + Olaparib; first compound 0.009487 µM) | relative viability (Dinaciclib + Olaparib; first compound 0.03 µM) | relative viability (Dinaciclib + Olaparib; first compound 0.09487 µM) | relative viability (Dinaciclib + Olaparib; first compound 0.3 µM) |
| --- | --- | --- | --- | --- | --- | --- | --- | --- | --- | --- | --- | --- | --- | --- | --- | --- | --- | --- | --- | --- |
| NCI-H2347 | 0.986 | 0.324 | 0.274 | 0.222 | 0.459 | 0.319 | 0.228 | 0.224 | 0.673 | 0.383 | 0.212 | 0.232 | 0.515 | 0.304 | 0.252 | 0.228 | 0.523 | 0.241 | 0.216 | 0.209 |
| LXF-289 | 1.01 | 0.264 | 0.0715 | 0.0695 | 0.815 | 0.254 | 0.0816 | 0.0773 | 0.356 | 0.293 | 0.109 | 0.0948 | 0.813 | 0.257 | 0.0809 | 0.0855 | 1.01 | 0.103 | 0.0785 | 0.0985 |
| BEN | 1.24 | 0.517 | 0.207 | 0.236 | 1.07 | 0.501 | 0.23 | 0.274 | 0.88 | 0.572 | 0.245 | 0.313 | 0.67 | 0.63 | 0.345 | 0.308 | 0.956 | 0.457 | 0.258 | 0.26 |
| NCI-H2023 | 0.538 | 0.25 | 0.064 | 0.0614 | 0.165 | 0.0899 | 0.0697 | 0.0581 | 0.157 | 0.0607 | 0.0544 | 0.0524 | 0.678 | 0.08 | 0.0556 | 0.0518 | 0.29 | 0.0582 | 0.0542 | 0.0574 |
| NCI-H661 | 0.346 | 0.147 | 0.176 | 0.152 | 0.798 | 0.365 | 0.214 | 0.151 | 0.472 | 0.181 | 0.158 | 0.196 | 0.804 | 0.235 | 0.211 | 0.211 | 0.664 | 0.227 | 0.148 | 0.147 |
| NCI-H1355 | 0.933 | 0.233 | 0.141 | 0.159 | 1.04 | 0.976 | 0.449 | 0.116 | 0.364 | 0.321 | 0.174 | 0.157 | 0.634 | 0.507 | 0.262 | 0.136 | 0.755 | 0.487 | 0.133 | 0.141 |
| NCI-H1793 | 0.468 | 0.188 | 0.163 | 0.15 | 0.63 | 0.139 | 0.142 | 0.13 | 0.488 | 0.206 | 0.127 | 0.149 | 0.599 | 0.25 | 0.107 | 0.158 | 0.64 | 0.139 | 0.119 | 0.153 |
| COR-L 105 | 0.575 | 0.35 | 0.234 | 0.187 | 0.91 | 0.291 | 0.348 | 0.295 | 0.618 | 0.408 | 0.304 | 0.278 | 0.679 | 0.444 | 0.302 | 0.302 | 0.957 | 0.391 | 0.312 | 0.269 |
